The assay deals with Jagged1-induced signaling through Notch1. Nature of the assay: Co-culture Notch reporter (luciferase) assay, Jagged1-induced. The class given is cell-based. The conditions noted are these: NIH-3T3 co-culture; antibody 0.4-50 μg/ml (Example 4) or 0.016-50 μg/ml (Example 5). As for the experimental part:
To determine whether anti-Jagged antibodies can act as antagonists of Jagged-induced Notch signaling, co-culture experiments were performed essentially as described by Wu et al., Nature 464, 1052-1057 (15 April 2010). NIH-3T3 cells engineered to express Jagged1, as the Notch ligand, were co-cultured with NIH 3T3 cells that stably express Notch1 and that were transiently transfected to express a Notch-responsive TP-1 (12× CSL) firefly luciferase reporter and a constitutively expressed Renilla luciferase reporter (pRL-CMV, Promega).
Antibodies C and D, and their respective affinity-matured descendants, bind to both human and murine Jagged1, and human and murine Jagged2 (e.g., FIG. 10A). […] Signaling was induced by Jagged1 (FIG. 13B, dark gray columns) or by Jagged2 (FIG. 13B, light gray columns) and inhibition was determined as described in Example 4 using the antibodies at concentrations of 0.016-50 μg/ml. Controls included cultures that were not stimulated with ligand and not treated with antibody ([…], Untreated), not stimulated with ligand (FIG. 13B, No Stimulation or 3T3P), treated with 5-10 μg/ml isotype control antibody (FIG. 13B, agD or gD), stimulated with ligand but not treated with antibody (Stim/no AB or No Ab), treated with 5 μM of the gamma-secretase inhibitor DAPT or the DAPT vehicle control of DMSO.

The structures appear in SMILES notation.

On to `C[C@H](NC(=O)Cc1cc(F)cc(F)c1)C(=O)N[C@H]1N=C(c2ccccc2)c2ccccc2N(C)C1=O` [Compound E], for which the “inhibition of Jagged1-induced Notch reporter expression” value is “reduced to background levels”.

(Values after patent US11702479B2, “Anti-jagged antibodies and methods of use” (Genentech, Inc., priority 2012, dated 2023).)
